The NIST ThermoML archive (doi:10.1016/j.jct.2014.07.018)
Several values for one entry are separate records, joined by “and”; a condition that tells them apart may be missing. Equal values may be shown once. Numbers after ± are expanded uncertainties.

Assay: molar heat capacity at constant pressure
Settings: 101.33 kPa, Vacuum adiabatic calorimetry

CCC[n+]1ccn(C)c1.[Br-] [1-methyl-3-propylimidazolium bromide]
molar heat capacity at constant pressure
Settings | Crystal 2 | Liquid
228.67 K | 177 ± 0.8 J/K/mol | –
229.42 K | 177.5 ± 0.8 J/K/mol | –
230 K | 177.8 ± 0.8 J/K/mol | 261.5 ± 1.1 J/K/mol
230.71 K | 178.2 ± 0.8 J/K/mol | –
231.48 K | 178.7 ± 0.8 J/K/mol | –
233.47 K | 180 ± 0.8 J/K/mol | –
233.54 K | 180 ± 0.8 J/K/mol | –
235.59 K | 181.3 ± 0.8 J/K/mol | –
235.81 K | 181.5 ± 0.8 J/K/mol | –
237.64 K | 182.5 ± 0.8 J/K/mol | –
237.86 K | 182.7 ± 0.8 J/K/mol | –
239.69 K | 183.9 ± 0.8 J/K/mol | –
239.9 K | 184.1 ± 0.8 J/K/mol | –
240 K | 184.1 ± 0.8 J/K/mol | 263.8 ± 1.1 J/K/mol
241.74 K | 185.1 ± 0.8 J/K/mol | –
241.94 K | 185.3 ± 0.8 J/K/mol | –
243.78 K | 186.4 ± 0.8 J/K/mol | –
243.99 K | 186.6 ± 0.8 J/K/mol | –
245.82 K | 187.8 ± 0.8 J/K/mol | –
246.03 K | 187.9 ± 0.8 J/K/mol | –
247.86 K | 189.1 ± 0.8 J/K/mol | –
248.07 K | 189.3 ± 0.8 J/K/mol | –
249.89 K | 190.6 ± 0.8 J/K/mol | –
250 K | 190.6 ± 0.8 J/K/mol | 266.2 ± 1.1 J/K/mol
250.11 K | 190.7 ± 0.8 J/K/mol | –
251.92 K | 192 ± 0.8 J/K/mol | –
252.16 K | 192.2 ± 0.8 J/K/mol | –
253.95 K | 193.4 ± 0.8 J/K/mol | –
254.2 K | 193.6 ± 0.8 J/K/mol | –
255.97 K | 194.9 ± 0.8 J/K/mol | –
256.25 K | 195.1 ± 0.8 J/K/mol | –
257.98 K | 196.4 ± 0.8 J/K/mol | –
258.29 K | 196.7 ± 0.8 J/K/mol | –
260 K | 198 ± 0.8 J/K/mol and 198.1 ± 0.9 J/K/mol | 269.1 ± 1.2 J/K/mol
260.33 K | 198.3 ± 0.8 J/K/mol | –
262 K | 199.6 ± 0.8 J/K/mol | –
262.37 K | 199.9 ± 0.9 J/K/mol | –
264.01 K | 201.2 ± 0.9 J/K/mol | –
264.42 K | 201.7 ± 0.9 J/K/mol | –
266.06 K | 203.2 ± 0.9 J/K/mol | –
266.47 K | 203.4 ± 0.9 J/K/mol | –
268.16 K | 205.1 ± 0.9 J/K/mol | –
268.52 K | 205.3 ± 0.9 J/K/mol | –
270 K | 206.7 ± 0.9 J/K/mol | 272 ± 1.2 J/K/mol
270.26 K | 207.1 ± 0.9 J/K/mol | –
270.57 K | 207.1 ± 0.9 J/K/mol | –
272.36 K | 209.2 ± 0.9 J/K/mol | –
272.62 K | 209.4 ± 0.9 J/K/mol | –
274.45 K | 211.5 ± 0.9 J/K/mol | –
274.67 K | 211.5 ± 0.9 J/K/mol | –
276.54 K | 213.9 ± 0.9 J/K/mol | –
276.71 K | 213.9 ± 0.9 J/K/mol | –
278.62 K | 216.6 ± 0.9 J/K/mol | –
278.75 K | 216.6 ± 0.9 J/K/mol | –
280 K | 216.4 ± 0.9 J/K/mol | 275.1 ± 1.2 J/K/mol
280.68 K | 219.5 ± 0.9 J/K/mol | –
280.79 K | 219.5 ± 0.9 J/K/mol | –
282.74 K | 222.7 ± 0.9 J/K/mol | –
282.84 K | 222.7 ± 0.9 J/K/mol | –
284.78 K | 226.4 ± 1 J/K/mol | –
284.88 K | 226.6 ± 1 J/K/mol | –
286.82 K | 230.9 ± 1 J/K/mol | –
288.82 K | 236.3 ± 1 J/K/mol | –
290 K | 227.1 ± 1 J/K/mol | 278.2 ± 1.2 J/K/mol
290.81 K | 242.8 ± 1 J/K/mol | –
292.77 K | 251.5 ± 1.1 J/K/mol | –
294.69 K | 262.7 ± 1.1 J/K/mol | –
295.89 K | – | 280.2 ± 1.2 J/K/mol
296.57 K | 278.5 ± 1.2 J/K/mol | –
297.86 K | – | 280.6 ± 1.2 J/K/mol
298.15 K | – | 280.8 ± 1.2 J/K/mol
298.39 K | 300.9 ± 1.3 J/K/mol | –
299.92 K | – | 281.4 ± 1.2 J/K/mol
300 K | – | 281.4 ± 1.2 J/K/mol
300.12 K | 334.9 ± 1.5 J/K/mol | –
301.74 K | 387.4 ± 1.8 J/K/mol | –
301.97 K | – | 282 ± 1.2 J/K/mol
303.2 K | 470.7 ± 2.5 J/K/mol | –
304.02 K | – | 282.8 ± 1.2 J/K/mol
304.47 K | 613.7 ± 4.1 J/K/mol | –
305.51 K | 844.2 ± 7.1 J/K/mol | –
306.07 K | – | 283.2 ± 1.2 J/K/mol
306.32 K | 1193 ± 13 J/K/mol | –
306.93 K | 1697 ± 14 J/K/mol | –
308.12 K | – | 284.1 ± 1.2 J/K/mol
309.54 K | 251.4 ± 1.1 J/K/mol | 284.6 ± 1.2 J/K/mol
310 K | – | 284.7 ± 1.2 J/K/mol
310.17 K | – | 284.7 ± 1.2 J/K/mol
312.01 K | – | 285.5 ± 1.2 J/K/mol
312.22 K | – | 285.3 ± 1.2 J/K/mol
314.27 K | – | 285.9 ± 1.2 J/K/mol
316.32 K | – | 286.9 ± 1.2 J/K/mol
318.37 K | – | 287.5 ± 1.2 J/K/mol
320 K | – | 288.1 ± 1.2 J/K/mol
320.41 K | – | 288.2 ± 1.2 J/K/mol
322.46 K | – | 288.8 ± 1.2 J/K/mol
324.5 K | – | 289.6 ± 1.2 J/K/mol
326.54 K | – | 290.4 ± 1.2 J/K/mol
328.58 K | – | 291 ± 1.2 J/K/mol
330 K | – | 291.7 ± 1.3 J/K/mol
330.62 K | – | 291.9 ± 1.2 J/K/mol
332.66 K | – | 292.7 ± 1.2 J/K/mol
334.7 K | – | 293.3 ± 1.2 J/K/mol
336.73 K | – | 294.1 ± 1.2 J/K/mol
338.61 K | – | 294.7 ± 1.2 J/K/mol
340 K | – | 295.3 ± 1.3 J/K/mol
340.58 K | – | 295.5 ± 1.2 J/K/mol
342.63 K | – | 296.2 ± 1.2 J/K/mol
344.68 K | – | 297 ± 1.2 J/K/mol
346.73 K | – | 297.8 ± 1.2 J/K/mol
348.78 K | – | 298.6 ± 1.2 J/K/mol
350 K | – | 299.1 ± 1.3 J/K/mol
350.82 K | – | 299.4 ± 1.2 J/K/mol
352.87 K | – | 300.3 ± 1.3 J/K/mol
354.92 K | – | 300.9 ± 1.3 J/K/mol
356.97 K | – | 301.7 ± 1.3 J/K/mol
359.01 K | – | 302.5 ± 1.3 J/K/mol
360 K | – | 303 ± 1.3 J/K/mol
361.05 K | – | 303.5 ± 1.3 J/K/mol
363.1 K | – | 304.2 ± 1.3 J/K/mol
365.14 K | – | 305 ± 1.3 J/K/mol
367.18 K | – | 305.8 ± 1.3 J/K/mol
370 K | – | 307 ± 1.3 J/K/mol
